Literature values, collected in publication PMC9605497, “Potential of Epidermal Growth Factor-like Peptide from the Sea Cucumber Stichopus horrens to Increase the Growth of Human Cells: In Silico Molecular Docking Approach” (Marine Drugs, 2022).

Legend:
EGFR = details: SPR and AFM, experimental; ref [41] Kuo et al.; read-out: dissociation constant (Kd) of EGF and EGFR complex; cited from earlier work
Source text: The values are different because docking is based on the scoring functions used. […] A lower Kd value means dissociation occurs at a slow rate and the binding affinity (Ka) between these ...

human skin model = details: 50 nM, compared to 0.1 nM and 10 nM EGF; ref [18]; cited from earlier work
Source text: Despite these nutritional properties that could be indirectly associated with the wound healing benefit of this marine organism, the full potential of sea cucumber as a source of marine therapeutic product remains unexplored and limited to the previous approaches of specific metabolite identification. Among the prospective molecules to be investigated are growth factors and cytokines, which are examples of important mitogens that ensure an effective wound healing process. Several mitogens are involved directly as growth factors in cell proliferation such as epidermal growth factor (EGF) ...

carcinoma cells = details: 10 nM EGF; ref [75] Clark et al.; cited from earlier work
Experimental: (§1) The rationale of testing peptide concentrations at 10 nM was based on a study done by Clark et al.. In the study, the EGFR expression in carcinoma cells was prolonged for 10 h when 10 nM of EGF was exerted, as compared to only 4 h of EGFR expression in 0.4 nM EGF. This is supported by another experiment by Zhao et al. where cell proliferation of CHO cells can only be induced when exerted with EGF concentrations below 0.1 ng/mL. In contrast, cell proliferation at higher EGF concentrations (1 to 100 ng/mL) was suppressed. The process of EGF binding to its receptor and the internali ...

CHO cells = details: ref [76] Zhao et al., cited from earlier work
Experimental: as §1

HeLa cells = details: ref [77]; cited from earlier work
Experimental: as §1

receptors (EGFR) = details: 0.156 to 5 ng/mL biotinylated EGF; ref [46] King et al.; cited from earlier work
Experimental: The increasing binding activity was determined by both the concentration of biotinylated EGF tested and the number of cells used. In this study, inoculating about 80,000 cells gives a reproducible result as opposed to when lower number of cells was used. Increasing the ligand concentration could improve assessment of the binding signal of Sh-EGFl-1 peptide with human EGFR s ...

Human EGF: human EGF (chain C) of crystal structure 1IVO; also EGF of cited literature (MNSDSECPLSHDGYCLHDGVCMYIEALDKYACNCVVGYIGERCQYRDLKWWELR; biotin (conjugated with NHS-biotin; sites not stated))
Kd (EGFR): ~177 nM
DNA synthesis (human skin model): maximum increase of DNA synthesis
duration of EGFR expression (carcinoma cells): 10 h
cell proliferation at higher EGF concentrations (CHO cells; 1 to 100 ng/mL): suppressed
EGF concentration inducing cell proliferation (CHO cells; CHO cells): below 0.1 ng/mL
time for EGF binding and internalization of receptor (HeLa cells): less than 30 min

biotinylated EGF: biotinylated EGF used by King et al.
absorbance reading (receptors (EGFR)): consistent increases in the absorbance reading
